The text below walks through data of patent publication US7365096B2, “Methods for selectively inhibiting Janus tyrosine kinase 3 (Jak3)” (Board of Regents, The University of Texas System, priority 2002, dated 2008).

Assay [1] deals with γc/Jak3-dependent PHA-activated human T cells. Put plainly: Proliferation of PHA-activated human T cells ([3H]-thymidine). The format is cell-based. The conditions noted are these: for IC50: Homo sapiens. As to the method:
Cell culture and treatment. The rat T-cell line Nb2-11c, originally developed by Dr. Peter Gout (Vancouver, Canada), was grown in RPMI-1640 with 10% fetal calf serum (Intergen, cat. no. 1020-90), 2 mM L-glutamine, 5 mM HEPES, pH 7.3, and penicillin-streptomycin (50 IU/ml and 50 μg/ml, respectively), at 37° C./5% CO2. Freshly explanted normal human T lymphocytes purified by isocentrifugation (Ficoll®; EM Science, Gibbstown, N.J.) were phytohemagglutinin (PHA)-activated for 72 hours as previously described.^23 T lymphocytes were made quiescent by washing and incubating for 24 hours in RPMI-1640 medium containing 1% fetal calf serum before exposure to cytokines. […] The Mannich base 649641P (NC1153) was generously provided by Dr. Jonathan Dimmock College of Pharmacy, University of Saskatchewan, Saskatoon, Saskatchewan, Canada. All cells were then stimulated with 1 nM recombinant human IL-2 (Hoffman-LaRoche, Basel, Switzerland), IL4 or IL7 (PeproTech), or ovine prolactin (PRL) supplied by the National Hormone and Pituitary Program, National Institute of Diabetes, Digestive, and Kidney Disease (Bethesda, Md.), at 37° C. Cell pellets were frozen at −70° C.
Proliferation assays. Quiescent human primary T-cells, YT or rat Nb2-11c T-cells (5.0×10^4/well) were plated in flat-bottom, 96-well microtiter plates in 200 μl of quiescent media in the absence or presence of 1 nM IL-2, -4, -7 (PeproTech, Rock Hill, N.J.), or PRL. Next, cells were treated for 16 hours with the Mannich base drug and then pulsed for 4 hours with [^3H]-thymidine (0.5 μCi/200 μl) and harvested onto fiberglass filters. [^3H]-thymidine incorporation was analyzed by liquid scintillation counting as previously described,^23 or using standard techniques that are well known in the art.

Another assay has as its system human Jurkat T-cells. Put plainly: Growth / DNA synthesis of non-Jak3 expressing Jurkat cells. Type of assay: cell-based.

Like-named read-outs stand apart in the source and are kept apart here.

On to `CN(C)CC1CCCCCCCCCC(CN(C)C)C1=O` (mixture of isomers) [649641P (NC1153)], for which the IC50 (in general, the midpoint of a concentration-inhibition curve) was roughly 2500 nM in assay [1] (T-cell, 1 nM IL-4, read-out: IC50, IL4 driven cell growth); roughly 2500 nM in assay [1] (T-cell, 1 nM IL-7, read-out: IC50, IL7 driven cell growth); roughly 2500 nM in assay [1] (IL-2 driven T-cell growth, 16 hours drug, [3H]-thymidine, read-out: IC50, disrupting cell growth). Also, the “IL2, IL4 or IL7 driven growth normalized to untreated controls” value in assay [1] (dose dependent) is “inhibits IL2, IL4 or IL7 driven growth”. The “cell growth / DNA synthesis of Jurkat cells” value with human Jurkat T-cells is recorded as “did not inhibit DNA synthesis”; with human Jurkat T-cells (listed as NC1153), “does not block cell growth”.
